Experimental findings from patent US4914191A, “Anthracycline derivatives having cytostatic activity” (Behringwerke Aktiengesellschaft, priority 1987, dated 1990) are described below.

The test system of data set [1] is L1210 mouse leukemia cells. The data set is described as follows: formation of colonies of L1210 leukemia cells in soft agar. It is filed as cell-based. As to conditions: Mus musculus. How it is done:
The cytostatic activity of the compounds according to the invention was tested using L1210 mouse leukemia cells. This made use of the formation of colonies of L1210 leukemia cells in agar plates. This method is used to detect the effect of the test substances on the growth behavior of the cells over 1 hour or over several generations. With a cell cycle lasting 10-12 hours, this means that about 14 consecutive generations are observed in a test lasting 7 days. In this test, the substances having cytostatic activity according to the invention bring about a reduction in the number of colonies to be observed by comparison with an untreated control sample.
500 leukemia cells per plate were incubated with various concentrations of the test substance at 37° C. for 1 hour. These cells were then washed twice with McCoy5A medium and finally, after addition of 0.3% agar, poured into Petri dishes. Controls were incubated only with fresh medium. In some cases, in place of the incubation for one hour, various concentrations of test substances were mixed with the upper agar layer in order in this way to achieve continuous exposure of the cells throughout the incubation time. After the agar had solidified, the plates were incubated at 37° C. in an incubator for 7 days (5% by vol. CO2, 95% relative humidity). The number of colonies with a diameter of more than 60 μm which had formed was then counted. The results have been given as the number of colonies in treated agar plates as a percentage of the untreated control. The IC50 was determined, as a measure of the activity of the substance, from the dose-effect plot obtained in this way.

Data set [2] in a line: approximative toxicity, intraperitoneal (LD50). To be noted: in vivo, ip. The source says:
*3xip,q3d: three intraperitoneal administrations with an interval of thre
1xip: one intraperitoneal administration

Data set [3] concerns L1210 leukemia cells. The data set is described as follows: cross-resistance in vitro, MTT assay on sensitive and adriamycin (doxorubicin)-resistant L1210 leukemia cells. The format is cell-based, mouse. To be noted: 3d incubation; for Degree of resistance of the cell: IC50 resistant subline relative to IC50 sensitive line. The procedure:
L1210, A 549 or HT 29 in the exponential phase of growth are incubated in a cell density of 5×10^3 cells/ml in RPMI 1640 in a 96-well microtiter plate for 72 hours with various concentrations of the test substance at 37° C., 5% CO2 and 95% relative humidity. Control experiments contain merely growth medium in place of the test substance. Each test substance and the control are determined in quadruplicate. After incubation for 65 hours, 50 μl of MTT solution (2.5 mg/ml in phosphate-buffered saline) are added. In the presence of live cells, MTT is reduced to a dark-red insoluble formazan dyestuff. This reaction is complete after 7 hours (L1210 cells) or after 24 hours (A 549, HT 29 cells), and the supernatant medium is carefully removed by aspiration. The insoluble dyestuff is dissolved by addition of 100 μl of DMSO, and the extinction of the resulting solution at a wavelength of 492 nm is then measured for each well in a Flow 340 CC multiscan photometer.
The ratio of the extinctions of treated and untreated cells yields a dose-effect plot from which the concentration which just kills 50% of the cells (IC50) can be read off. The coefficient of variation for repeat tests is less than 15%.
The cross-resistance between the particular test compound and doxorubicin is determined using the MTT assay (for method, see above) on sensitive and resistant L1210 leukemia cells.
The resistant cell line was established by incubation of a sensitive subline with stepwise increasing concentrations of the reference compound.
The IC50 of the test compound on the resistant subline relative to the IC50 of the sensitive subline yields the degree of resistance both for the test compound (DR(T)) and for the reference compound (DR(R)) in accordance with the formula [formula]
In addition, the degree of cross-resistance (DCR) for the test compound is calculated in accordance with the formula [formula]
In the case where the loss of activity of the test compound on the resistant line related to the sensitive line is greater than that of the reference compound, a degree of cross-resistance of more than 100% is possible.
Background: Tetrazolium assays rely on reduction of a dye to a coloured formazan, in cell work by metabolically active cells.

Where [4] appears, read: 168 h, continuous exposure, 7 days, L1210 colony formation, read-out: Long-term incubation IC50.
The mark [5] stands for this setting: 1 h incubation, then 7 days colony formation, L1210, read-out: 1 h Incubation IC50.

≈ marks a conversion by molar mass, not a printed value. Like-named read-outs stand apart in the source and are kept apart here.

Turning to `CC[C@@]1(O)C[C@H](O[C@H]2C[C@H](N(C)C)[C@H](O)[C@H](C)O2)c2c(O)c3c(c(O)c2[C@H]1O[C@H]1C[C@H](N(C)C)[C@H](OC(=O)c2ccc(OC)cc2)[C@H](C)O1)C(=O)c1cccc(O)c1C3=O` [Compound 12b, 7-O-α-L-rhodosaminyl-10-O-[4"-O-(p-methoxybenzoyl)-α-L-rhodosaminyl]-β-rhodomycinone], the IC50 (in general, the concentration that inhibits the measured activity by half) in data set [1] (setting [4]) is 0.011 µg/mL (≈ 0.0132 µM). Moreover, in data set [1] (setting [5]), the IC50 was 0.1 µg/mL (≈ 0.12 µM). For the same molecule, the LD50 (in general, the dose expected to kill half of the subjects tested) in data set [2] (three intraperitoneal administrations with an interval of three days between each, read-out: Approximative toxicity LD50, 3xip, q3d) was 5.33 to 10.7 mg/kg. Besides, in data set [3], the “Degree of cross-resistance to adriamycin” value is 5.0% and the “Degree of resistance of the cell” value was 5.0.
`CC[C@@]1(O)C[C@H](O[C@H]2C[C@H](N(C)C)[C@H](OC(C)=O)[C@H](C)O2)c2c(O)c3c(c(O)c2[C@H]1O)C(=O)c1cccc(O)c1C3=O` [Compound 21, 7-O-(4'-O-Acetyl-α-L-rhodosaminyl)-β-rhodomycinone]: the IC50 in data set [1] (setting [4]) was determined as 0.08 µg/mL (≈ 0.137 µM). The IC50 in data set [1] (setting [5]) came out at 0.7 µg/mL (≈ 1.2 µM). The 50% lethal dose (LD50) in data set [2] (one intraperitoneal administration, read-out: Approximative toxicity LD50, 1xip) fell in the range of 1 to 10 mg/kg. In addition, in data set [3], the “Degree of cross-resistance to adriamycin” value is listed as 2.4% and the “Degree of resistance of the cell” value stood at 2.2.
